These results are taken from US6541196B2, “Method for cAMP production” (Jackson State University, priority 2000, dated 2003).

In assay [1] the test system is differentiated C2C12 cells. Briefly: cAMP production in differentiated C2C12 myoblasts. The class given is cell-based, mouse. As to conditions: isoproterenol 10, 0.1 or 0.001 μM, 37° C., 10 min. How it is done: Medium was aspirated from differentiated C2C12 cells, and monolayers were washed with PBS. Monolayers were then overlaid with PBS at 37° C. containing the following treatments: isoproterenol (ISO) at 10^−5, 10^−7, and 10^−9 M forskolin (positive control) at 5×10^−5 M, and negative control (no treatments). A cAMP phosphodiesterase inhibitor, imidazolidin, (10^−6 M) was added to all incubations to prevent enzymatic degradation of cAMP. Culture dishes were placed in a humidified incubator under an atmosphere of 95% air and 5% CO2 at 37° C. for 5-10 min. After the incubation, aliquots of incubation medium were quickly removed, chilled, and stored at −20° C. for cAMP determination (within 3 days). Cells were washed and frozen for later protein determination (Bradford, 1976). The cAMP assays were done as prescribed by the manufacturer of the cAMP quantitation kit (Diagnostic Products Corporation, Los Angeles, Calif.); this procedure is patterned after a procedure described by Tovey et al. The procedure entails a competition of ^3H cAMP for cAMP binding protein, separation of free (unbound) cAMP by adsorption onto dextran-coated charcoal, followed by counting of bound ^3H by liquid scintillation. […] Thus, cAMP production was determined as the sum of assayable cAMP in the PBS and within the cells.
A general note: Changes in cAMP serve as a functional read-out for many G protein-coupled receptors.

The next assay has as its system MDCKE11 cells. Briefly: cAMP production in renal tubular epithelial cells (MDCK). As to conditions: P<0.001 when compared to all other groups. Type of assay: cell-based, canine. How it is done: The culture medium was aspirated from RTEc monolayers, and the cells were washed three times with PBS. Madin-Darby canine kidney cell (MDCKc) monolayers were then overlaid with 5 mls PBS at room temperature on 100 mm culture dishes. cAMP phosphodiesterase inhibitor was added at a final concentration of 10 μM to all incubations to prevent the enzymatic degradation of cellular cAMP. Isoproterenol (ISO) at 10^−5M, bFGF (basic fibroblast growth factor) (20 ng/ml), or both were added to the treatment groups. Cells were incubated under an atmosphere of 95% air and 5% CO2 at 37° C. for 1, 3, 5, 10, 20, and 40 minute periods. Following the incubation period, 1.0 ml/plate aliquot samples were transferred to 12×75 mm polypropylene tubes, and immediately placed in a 0° C. ice bath. […] Total cellular protein was determined using the BCA (bicinchoninic acid) protein assay (Pierce, Rockford, Ill.) according to the manufacturers specification. The cAMP assays were done as prescribed by the manufacturer of the cAMP quantitation kit (Diagnostic Products Corporation, Los Angeles, Calif.); this procedure is patterned after a procedure described by Tovey et al. The procedure entails a competition of ^3H cAMP for cAMP binding protein, separation of free (unbound) cAMP by adsorption onto dextrancoated charcoal, followed by counting of bound ^3H by liquid scintillation (Izevbigie, Pediatr. Nephrol., 2000).

In a further assay the test system is HFMc. The assay is described as follows: cAMP accumulation in human fetal mesangial cells (extracellular cAMP, competitive 3H-cAMP binding kit). Type of assay: cell-based. The conditions noted are these: 10 min; for cAMP accumulation compared with control cells: confluent serum-starved HFMc, Ang II 1 μM, bFGF 20 ng/ml, p<0.05. The method, then:
The culture medium was aspirated from HFMc monolayers, and the cells were washed three times with PBS. Cell monolayers were then overlaid with PBS at room temperature on 100 mm culture dishes. A cAMP phosphodiesterase inhibitor was added to a final concentration of 10 μM to all incubations to prevent the enzymatic degradation of cellular cAMP. Isoproterenol (ISO) at 10^−5M, with or without bFGF (basic fibroblast growth factor) (20 ng/ml), or three doses of ISO (10^−5, 10^−7, 10^−9M) with 10^−6M angiotensin II (Ang II) were added to the treatment groups. Cells were incubated under an atmosphere of 95% air and 5% CO2 at 37° C. for 10 minutes. Following the incubation period, 1.0 ml/plate aliquot samples were transferred to 12×75 mm polypropylene tubes, and immediately placed in a 0° C. ice bath. The cell monolayers and 1.0 ml aliquots were stored at −20° C. for protein determination and cAMP analysis respectively. Total cellular protein was determined using the BCA (bicinchoninic acid) protein assay (Pierce, Rockford, Ill.) according to the manufacturers specification. The extracellular cAMP per plate was quantified using Diagnostic Corporation (Los Angeles, Calif.) kits according to the manufacturer's specifications; this procedure is patterned after a procedure described by Tovey et al. The procedure entails a competition of ^3H cAMP for cAMP binding protein, separation of free (unbound) cAMP by adsorption onto dextrancoated charcoal, followed by counting of bound ^3H by liquid scintillation (Izevbigie, Pediatr. Res., 2000).

As to `CC(C)NCC(O)c1ccc(O)c(O)c1` (centres unmarked) [Isoproterenol, isoproterenol], the cAMP production entry is on record as “dose-dependent cAMP production” in assay [1] and “induction of cAMP production” in the assay on MDCKE11 cells.

As to “angiotensin II (DRVYIHPF; Angiotensin-2; UniProt P01019 25-32, looked up) [Ang II]”, the “cAMP accumulation compared with control cells” value in the assay on HFMc is reported as “not”. In the assay with HFMc (serum-starved HFMc, Ang II (1 µM) with different concentrations of isoproterenol, significant at 0.1 and 10 μM isoproterenol (p<0.05)), the “modulation of isoproterenol-induced cAMP accumulation” value is “decreased”.

On to basic fibroblast growth factor [bFGF], for which the “cAMP accumulation compared with control cells” value in the assay on HFMc is “modest but significant increase”.
